{
  "source": "patent US6297230A",
  "about": "“Cyanoaziridines for treating cancer” (priority 2000, dated 2001)",
  "key": {"[1]": {"system": "L-1210 MDR leukemia cells", "settings": "cited from earlier work"}, "MCF-7/MITOX cells": {"system": "MCF-7/MITOX cells", "settings": "cited from earlier work"}, "MCF-7/D40 cells": {"system": "MCF-7/D40 cells", "settings": "MCF-7/DOX40; cited from earlier work"}, "[2]": {"system": "advanced solid tumors in cancer patients", "settings": "cited from earlier work; for Clinical response: Phase I clinical trials"}, "transplanted tumors": {"system": "transplanted tumors", "settings": "rodents; cited from earlier work"}, "[3]": {"system": "human prostate cancer tumors", "experiment": "Activity in prostate cancer in SCID mouse model", "type": "in vivo, human tumors in SCID mice", "settings": "Table 1B"}, "[4]": {"experiment": "Tolerability and activity on prolonged dosing in tumor-bearing mice and dogs", "type": "in vivo", "settings": "suggested by prior studies in mice and dogs"}, "[5]": {"settings": "cited from earlier work"}, "[6]": {"settings": "background statement; cited from earlier work"}, "8226/S myeloma cells": {"system": "8226/S myeloma cells", "experiment": "MTT growth inhibition, parental 8226 myeloma cells", "type": "cell-based, human", "settings": "Homo sapiens, read-out: IC50", "procedure": "(§1) Microculture Tetrazolium (MTT) Assay for Tumor Cells\n(§2) Tumors are disaggregated into single cell suspensions using mechanical, hypoosmotic, and/or enzymatic (trypsin) methods. The cells are plated at a concentration of 3-5×10^4 per […] well into plastic 96-well plates. Growth medium containing 5-10% (vol/vol) heat-inactivated fetal bovine serum and penicillin/streptomycin (both […]) are added prior to incubation at 37° C. for 6 days. Afterwards the medium containing the drug is removed, the cells are centrifuged in fresh medium or phosphate-buffered saline (pH 7.4). A tetrazolium dye, […]-2,5-diphenyl tetrazolium (MTT), is then added. (Mossman, T., J Immunol 65:55-63, 1983.) This dye forms a colored formazan product upon activation by mitochondrial reductases in viable cells. Typically, the formazan product is solubilized in acid-propanol or DMSO. The intensity of the color is proportional to viable cell numbers and this is quantitated by spectrophotometric absorbance at 570 nm on a micro ELISA plate reader. The results are calibrated in % control absorbance from untreated tumor cells. (Alley, et al., Cancer Res 48:589-601, 1988.)\n(§3) The following unpublished studies were performed in vitro to develop and characterize a human myeloma cell line with resistance to imexon-induced cytotoxicity. The original (parental) 8226 cell line was developed by Matsuoka, et al. (Matsuoka, et al., Proc Soc Exp Biol Med 125:1246-1250, 1967). It is a lymphoblastoid cell line which stains for lambda light immunoglobulin production. It grows in vitro in suspension culture (non-adherent) and forms tumors when injected into SCID mice. (Skehan, et al., J Natl Cancer Inst 82:1107-1112, 1990.)\n(§4) One exciting feature of our novel compounds is, that they work on imexon-resistant cells. An imexon-resistant 8226 myeloma cell line was selected by continuously exposing cells to gradually increasing concentrations of imexon up to 3.25 mg/mL. This cell line has slightly longer cell doubling time than 8226 sensitive cells (24 vs 20 hours). […] The dose response curve for imexon continuous exposure was determined using MTT assay. Each data point represents the mean of three experiments performed in 8 replicates.\n(§5) We compared IC50 concentrations and there is a 4-fold resistance observed for the 8226/I-R cell line when the cells were continuously exposed to imexon for […] at 37° C. The degree of resistance was relatively unstable in the absence of the drug, with the resistant cells losing substantial resistance when maintained in imexon-free medium for 20 weeks (FIG. 2).\n(§6) IC50 was measured by MTT assay. IC50 refer to the concentration by drug that results in 50% growth inhibition. A minimum of 2 assays were performed for each drug following 250 mg/mL imexon is equivalent to 6.5 cGy radiation in sensitive cells.\n(§7) Using the colorimetric microculture tetrazolium (MTT) assay, imexon and 25-related analogs were studied for tumor growth inhibition in vitro. Imexon-induced DNA single strand breaks were assessed by alkaline elution. Cells were exposed to imexon for 1 hour prior to start of experiment. The fraction of ^14 C-labeled DNA retained on the filter is plotted against the time of elution. The cells included parental 8226 myeloma cells and the 8226 imexon-resistant cells exposed to drug (imexon or analog) continuously for 10 days at 37° C. At the end of the exposure period, the cells were analyzed for viability using the formazan-forming tetrazolium dye (MTT) assay."}, "[7]": {"system": "human lymphoma, melanoma, and prostate cancer cell lines", "settings": "cited from earlier work"}, "8226/I-R myeloma cells": {"system": "8226/I-R myeloma cells", "experiment": "MTT growth inhibition, imexon-resistant 8226 myeloma cells", "type": "cell-based, human", "settings": "for IC50: Homo sapiens, read-out: IC50; for Fold Resistance (IC50 resistant cells/IC50 sensitive cells): Table 4, 8226/I-R vs 8226/S", "procedure": "as §1, §2, §3, §4, §5, §6, §7"}, "human tumor cell lines": {"system": "human tumor cell lines", "settings": "in culture; cited from earlier work"}, "[8]": {"system": "AIDS-related lymphoma / lymphoma cells", "experiment": "Activity against lymphoma cells in vitro", "type": "cell-based", "settings": "Table 1B"}, "mast cell tumors": {"system": "mast cell tumors", "settings": "cited from earlier work"}, "[9]": {"system": "multiple myeloma (clonogenic assay)", "settings": "cited from earlier work"}, "Myelosuppression": {"experiment": "Myelosuppression", "settings": "in vivo"}, "Oral activity in mice": {"experiment": "Oral activity in mice", "type": "in vivo"}, "[10]": {"system": "DNA of 8226 myeloma cells", "experiment": "Imexon-induced DNA single strand breaks by alkaline elution", "type": "cell-based, human", "settings": "for DNA single strand breaks: 8226 cells, 10-500 μg/mL", "procedure": "as §7\nThese strand breaks are noted by an enhanced rate of ^14 C-DNA elution through the filters after a one-hour exposure to imexon (10-500 μg/mL) at 30° C. At high imexon concentrations of≥100 μg/mL, over 75% of the radiolabeled DNA is eluted through the filters over the test period. By comparison, control cell DNA is highly retained (>95%) on the filter over the same 24-hour elution period."}, "[11]": {"system": "OVCAR-3 ovarian carcinoma cells", "settings": "cited from earlier work"}, "MCF-7/ADR cells": {"system": "MCF-7/ADR cells", "settings": "cited from earlier work"}, "WiDr MITOX cells": {"system": "WiDr MITOX cells", "settings": "cited from earlier work"}},
  "note": "Where two headings read alike, the source gives them in different places.",
  "data": [
    {"smiles": "COc1ccc(CCN(C)CCCC(C#N)(c2ccc(OC)c(OC)c2)C(C)C)cc1OC", "note": "(stereo not shown) [verapamil]", "values": [
      {"measurement": "Reversal of resistance", "setting": "[1]", "value": "resistance can be reversed"},
      {"measurement": "Reversal of resistance", "setting": "MCF-7/MITOX cells", "value": "resistance is not modulated (reversed)"},
      {"measurement": "Reversal of resistance", "setting": "MCF-7/D40 cells", "value": "sensitized (resistance reversed)"}
    ]},
    {"smiles": "N=C1NC(=O)N2CC12", "note": "(stereo not shown) [AMP 400, 4-imino-1,3-diazabicyclo[3.1.0]hexan-2-one]", "values": [
      {"measurement": "Clinical response", "setting": "[2]; listed as Imexon", "value": "produced objective responses or stabilized neoplastic diseases in cancer patients"},
      {"measurement": "Clinical response", "setting": "[2]; listed as parent compound", "value": "parent compound"},
      {"measurement": "Additional patients with disease stabilization", "setting": "[2]; advanced tumors", "value": 8, "unit": "patients"},
      {"measurement": "Duration of disease stabilization", "setting": "[2]; advanced tumors", "value": "4-24 months"},
      {"measurement": "Objective responses, evaluable patients", "setting": "[2]; breast cancer", "value": "1/7"},
      {"measurement": "Duration of complete disappearance of measurable disease", "setting": "[2]; lung cancer", "value": 33, "unit": "months"},
      {"measurement": "Objective responses, evaluable patients", "setting": "[2]; lung cancer", "value": "1/7"},
      {"measurement": "Duration of complete disappearance of measurable disease", "setting": "[2]; melanoma", "value": 42, "unit": "months"},
      {"measurement": "Objective responses, evaluable patients", "setting": "[2]; melanoma", "value": "1/7"},
      {"measurement": "Stable disease, number of patients", "setting": "[2]; one NSCLC, four breast cancer, one liver cancer", "value": 6, "unit": "patients"},
      {"measurement": "Duration of complete remission", "setting": "[2]; one patient, metastatic NSCLC", "value": "over 14 years"},
      {"measurement": "Activity against transplanted tumors", "setting": "transplanted tumors", "value": "active against a variety of transplanted tumors in rodents"},
      {"measurement": "Activity in prostate cancer", "setting": "[3]", "value": "active in"},
      {"measurement": "Maximally-tolerated human dose", "setting": "[4]", "value": "approximately 500 mg/m^2 /day"},
      {"measurement": "Tolerability", "setting": "[5]; Phase I, Europe, 1985", "value": "well tolerated"},
      {"measurement": "Nausea (mild, transient)", "setting": "[5]; patients", "value": 13, "unit": "%"},
      {"measurement": "Vomiting", "setting": "[5]; patients", "value": 23, "unit": "%"},
      {"measurement": "Myelosuppression", "setting": "[6]", "value": "not myelosuppressive"},
      {"measurement": "IC50", "setting": "8226/S myeloma cells; 8226/S, MTT", "value": 27, "unit": "µM"},
      {"measurement": "IC50", "setting": "8226/S myeloma cells; Table 5, Sensitive (parental) 8226", "value": 1, "unit": "µg/mL"},
      {"measurement": "Activity against human tumor cell lines in SCID mice", "setting": "[7]", "value": "active against human lymphoma, melanoma, and prostate cancer cell lines in SCID mice"},
      {"measurement": "IC50", "setting": "8226/I-R myeloma cells; 8226/I-R, MTT", "value": 120, "unit": "µM"},
      {"measurement": "IC50", "setting": "8226/I-R myeloma cells; Table 5, imexon-resistant 8226", "value": 8.5, "unit": "µg/mL"},
      {"measurement": "Fold Resistance (IC50 resistant cells/IC50 sensitive cells)", "setting": "8226/I-R myeloma cells", "value": 4.44},
      {"measurement": "Fold Resistance of IC50 R/IC50 's", "setting": "8226/I-R myeloma cells; Table 5, imexon-resistant vs sensitive 8226", "value": 4.5},
      {"measurement": "Fold resistance", "setting": "8226/I-R myeloma cells; continuous exposure for 5 days at 37° C", "value": 4, "unit": "fold"},
      {"measurement": "Activity against human tumor cell lines", "setting": "human tumor cell lines", "value": "active against a variety of human tumor cell lines in culture"},
      {"measurement": "Activity in lymphoma in vitro", "setting": "[8]", "value": "active in vitro"},
      {"measurement": "Objective responses in dogs", "setting": "mast cell tumors", "value": "Objective responses were observed in dogs with mast cell tumors"},
      {"measurement": "Cytotoxicity to multiple myeloma", "setting": "[9]", "value": "selectively cytotoxic to multiple myeloma in the clonogenic assay"},
      {"measurement": "Myelosuppression", "setting": "Myelosuppression", "value": "has not demonstrated myelosuppressive toxicity"},
      {"measurement": "Oral activity", "setting": "Oral activity in mice", "value": "not active orally in mice"},
      {"measurement": "DNA single strand breaks", "setting": "[10]; one-hour exposure, listed as Imexon", "value": "induced single strand breaks in both 8226 imexon-sensitive and resistant cells"},
      {"measurement": "DNA single strand breaks", "setting": "[10]; one-hour exposure, listed as imexon", "value": "induces concentration-dependent single-stranded breaks in tumor cell DNA"},
      {"measurement": "DNA strand breaks, resistant vs sensitive cells", "setting": "[10]; given dose of imexon, p<0.05", "value": "fewer strand breaks in imexon-resistant cells than in sensitive cells"},
      {"measurement": "Radiolabeled DNA eluted over the test period", "setting": "[10]; imexon ≥100 μg/mL, one-hour exposure", "value": "over 75%"},
      {"measurement": "Radiation equivalent of 250 mg/mL imexon", "setting": "[10]; sensitive cells, 250 μg/mL imexon", "value": 6.5, "unit": "cGy"}
    ]},
    {"smiles": "COc1cccc2c1C(=O)c1c(O)c3c(c(O)c1C2=O)C[C@@](O)(C(=O)CO)C[C@@H]3O[C@H]1C[C@H](N)[C@H](O)[C@H](C)O1", "note": "[Doxorubicin]", "values": [
      {"measurement": "Cross-resistance of L-1210 MDR", "setting": "[1]", "value": "cross-resistant"},
      {"measurement": "Resistance of MCF-7/MITOX", "setting": "MCF-7/MITOX cells", "value": "only partially resistant"},
      {"measurement": "IC50", "setting": "8226/S myeloma cells; 8226/S, MTT", "value": 0.00043, "unit": "µM"},
      {"measurement": "Cross-resistance of imexon-resistant cells", "setting": "8226/I-R myeloma cells; 8226 imexon-resistant cells, MTT", "value": "remains sensitive"},
      {"measurement": "IC50", "setting": "8226/I-R myeloma cells; 8226/I-R, MTT", "value": 0.00032, "unit": "µM"},
      {"measurement": "Fold Resistance (IC50 resistant cells/IC50 sensitive cells)", "setting": "8226/I-R myeloma cells", "value": 0.79},
      {"measurement": "Resistance of OVCAR-3", "setting": "[11]", "value": "resistant in vitro to clinically relevant concentrations"},
      {"measurement": "Decrease in sensitivity to doxorubicin", "setting": "MCF-7/ADR cells", "value": 192, "unit": "fold"},
      {"measurement": "Fold resistance of WiDr MITOX cells", "setting": "WiDr MITOX cells", "value": 8, "unit": "fold"}
    ]}
  ]
}
